Measured values published in US20140193827A1 (TEVA PHARMACEUTICAL INDUSTRIES, LTD., priority 2013, published 2014).

System: GA-primed murine splenocytes
Assay: Tolerance method for assessing process variability

glatiramer acetate [GA]
AVG expression IRGB10 (probe ILMN_2534151): 9.691 | AVG expression LOC624610 (probe ILMN_2537948): 8.96 | AVG expression LOC666559 (probe ILMN_2540103): 10.7199 | AVG expression AUH (probe ILMN_2543417): 8.451 | AVG expression HIPK2 (probe ILMN_2545445): 7.332 | AVG expression GNG12 (probe ILMN_2546272): 9.731 | AVG expression 4930426D05RIK (probe ILMN_2548681): 7.1 | AVG expression A130093I21RIK (probe ILMN_2553041): 7.932 | AVG expression A630006E02RIK (probe ILMN_2560567): 9.937 | AVG expression NDR3 (probe ILMN_2571414): 6.289 | AVG expression GAD1 (probe ILMN_2573826): 6.891 | AVG expression B930094H08R1K (probe ILMN_2578341): 6.497 | AVG expression D530007E13RIK (probe ILMN_2581681): 8.386 | AVG expression IL8RA (probe ILMN_2588216): 6.682 | AVG expression PLTP (probe ILMN_2589401): 7.226 | AVG expression IL27RA (probe ILMN_2591156): 8.583 | AVG expression BC021614 (probe ILMN_2591342): 7.519 | AVG expression QPRT (probe ILMN_2591754): 7.245 | AVG expression genericLYRP1 (probe ILMN_2592486): 7.785 | AVG expression SCG5 (probe ILMN_2592953): 6.961 | AVG expression DOCK10 (probe ILMN_2593143): 11.3 | AVG expression IGTP (probe ILMN_2593554): 12.78 | AVG expression KCNK13 (probe ILMN_2593787): 6.48 | AVG expression NSDHL (probe ILMN_2594521): 8.078 | AVG expression NSDHL (probe ILMN_2594525): 8.365 | AVG expression LOC100046232 (probe ILMN_2595732): 11.55 | AVG expression RGS1 (probe ILMN_2596596): 8.683 | AVG expression SLC44A2 (probe ILMN_2599719): 11.36 | AVG expression MPO (probe ILMN_2600421): 7.594 | AVG expression OVGP1 (probe ILMN_2600928): 6.54 | AVG expression A130092J06RIK (probe ILMN_2601453): 10.81 | AVG expression CREM (probe ILMN_2602899): 7.714 | AVG expression KLF2 (probe ILMN_2604029): 11.34 | AVG expression RANBP10 (probe ILMN_2605453): 9.654 | AVG expression AI646023 (probe ILMN_2605858): 6.049 | AVG expression AGFG1 (probe ILMN_2606072): 9.007 | AVG expression PDLIM4 (probe ILMN_2606162): 9.727 | AVG expression ACOT7 (probe ILMN_2606180): 9.205 | AVG expression CMAH (probe ILMN_2606825): 7.634 | AVG expression CHI3L1 (probe ILMN_2609813): 9.339 | AVG expression IFT172 (probe ILMN_2611450): 8.856 | AVG expression SLC25A19 (probe ILMN_2611532): 9.008 | AVG expression SERPINB6B (probe ILMN_2611755): 8.188 | AVG expression ARHGEF18 (probe ILMN_2612125): 10.09 | AVG expression LSS (probe ILMN_2614161): 9.397 | AVG expression B3GNT8 (probe ILMN_2614889): 8.954 | AVG expression DPP4 (probe ILMN_2615096): 9.69 | AVG expression CHAC1 (probe ILMN_2617468): 8.051 | AVG expression C330008K14RIK (probe ILMN_2618148): 10.14 | AVG expression SLC2A6 (probe ILMN_2618918): 10.76 | AVG expression LGALS1 (probe ILMN_2619107): 10.71 | AVG expression ERAF (probe ILMN_2619200): 8.714 | AVG expression PRNP (probe ILMN_2619316): 9.719 | AVG expression ATF3 (probe ILMN_2619408): 6.791 | AVG expression RGS1 (probe ILMN_2625377): 9.769 | AVG expression ACSS1 (probe ILMN_2628174): 10.26 | AVG expression SOCS2 (probe ILMN_2628178): 9.548 | AVG expression ASAH3L (probe ILMN_2629112): 6.995 | AVG expression CPM (probe ILMN_2629191): 9.17 | AVG expression PPAP2B (probe ILMN_2630993): 7.507 | AVG expression TMEM71 (probe ILMN_2631610): 6.536 | AVG expression CTLA4 (probe ILMN_2631752): 8.62 | AVG expression ACOT7 (probe ILMN_2632264): 11.36 | AVG expression SOCS1 (probe ILMN_2634796): 7.681 | AVG expression IGH-VJ558 (probe ILMN_2635272): 13.22 | AVG expression AXUD1 (probe ILMN_2636403): 10.85 | AVG expression PLA2G12A (probe ILMN_2636536): 9.884 | AVG expression SLAMF7 (probe ILMN_2638491): 8.628 | AVG expression HSPD1 (probe ILMN_2639036): 9.439 | AVG expression AK2 (probe ILMN_2641360): 10.39 | AVG expression GTF2I (probe ILMN_2642462): 11.52 | AVG expression EMP1 (probe ILMN_2642913): 7.96 | AVG expression ASNS (probe ILMN_2643513): 9.742 | AVG expression THY1 (probe ILMN_2644350): 11.24 | AVG expression MVD (probe ILMN_2645275): 9.423 | AVG expression SAMSN1 (probe ILMN_2646322): 11.87 | AVG expression JUN (probe ILMN_2646625): 8.291 | AVG expression CENTD1 (probe ILMN_2646891): 10.77 | AVG expression SIGLECG (probe ILMN_2648454): 9.552 | AVG expression GPNMB (probe ILMN_2648669): 7.401 | AVG expression MAN2A2 (probe ILMN_2650255): 6.819 | AVG expression ARHGAP9 (probe ILMN_2650739): 9.141 | AVG expression SLC12A7 (probe ILMN_2650953): 6.744 | AVG expression genericK1 (probe ILMN_2651886): 11.36 | AVG expression LRG1 (probe ILMN_2652500): 6.12 | AVG expression IFI47 (probe ILMN_2652857): 11.72 | AVG expression SESN1 (probe ILMN_2654074): 10.45 | AVG expression MYO6 (probe ILMN_2656854): 8.468 | AVG expression IFITM3 (probe ILMN_2658501): 11.43 | AVG expression TG (probe ILMN_2658878): 7.479 | AVG expression DGKA (probe ILMN_2658961): 11.07 | AVG expression IL7R (probe ILMN_2659739): 6.443 | AVG expression ACOT7 (probe ILMN_2660182): 8.55 | AVG expression ST6GALNAC4 (probe ILMN_2660837): 8.481 | AVG expression SCML4 (probe ILMN_2661185): 8.584 | AVG expression RAB35 (probe ILMN_2662097): 11.43 | AVG expression LMNA (probe ILMN_2662387): 8.27 | AVG expression SLAMF9 (probe ILMN_2663249): 8.243 | AVG expression EPHX1 (probe ILMN_2664224): 9.837 | AVG expression 3110013H01RIK (probe ILMN_2664726): 8.045 | AVG expression RIN3 (probe ILMN_2665545): 9.015 | AVG expression HEMK1 (probe ILMN_2666272): 9.174 | AVG expression PRG4 (probe ILMN_2668333): 5.989 | AVG expression HP (probe ILMN_2668509): 7.287 | AVG expression HP (probe ILMN_2668510): 7.507 | AVG expression CTSA (probe ILMN_2669714): 9.205 | AVG expression KIF1B (probe ILMN_2670778): 8.422 | AVG expression PFKP (probe ILMN_2673233): 8.097 | AVG expression 2310047A01RIK (probe ILMN_2675922): 7.606 | AVG expression GRIFIN (probe ILMN_2676543): 6.233 | AVG expression RNF144A (probe ILMN_2678127): 7.59 | AVG expression MNS1 (probe ILMN_2678431): 8.22 | AVG expression DUSP10 (probe ILMN_2678724): 8.26 | AVG expression RASGRP2 (probe ILMN_2678726): 6.734 | AVG expression IL7R (probe ILMN_2680827): 8.445 | AVG expression BCL2 (probe ILMN_2682162): 8.675 | AVG expression NALP6 (probe ILMN_2684600): 6.205 | AVG expression HMHA1 (probe ILMN_2685023): 11.42 | AVG expression CCR5 (probe ILMN_2685392): 7.052 | AVG expression CCR5 (probe ILMN_2685393): 7.202 | AVG expression IFNG (probe ILMN_2685712): 11.16 | AVG expression PRM1 (probe ILMN_2687652): 6.849 | AVG expression MCOLN2 (probe ILMN_2689401): 7.5921 | AVG expression PKIB (probe ILMN_2690241): 7.745 | AVG expression JAKMIP1 (probe ILMN_2690460): 9.597 | AVG expression KLHL14 (probe ILMN_2691014): 6.305 | AVG expression 9330186A19RIK (probe ILMN_2692554): 6.749 | AVG expression TGM2 (probe ILMN_2692615): 8.055 | AVG expression ERO1LB (probe ILMN_2692960): 10.32 | AVG expression CCDC125 (probe ILMN_2693679): 7.065 | AVG expression PNPLA7 (probe ILMN_2695047): 7.637 | AVG expression KIFC2 (probe ILMN_2695158): 6.733 | AVG expression PHF11 (probe ILMN_2696491): 9.238 | AVG expression PHF11 (probe ILMN_2696492): 9.454 | AVG expression MSCP (probe ILMN_2696609): 8.264 | AVG expression SLC25A37 (probe ILMN_2696610): 8.278 | AVG expression CD3D (probe ILMN_2697415): 11.45 | AVG expression HIST1H3H (probe ILMN_2698519): 8.014 | AVG expression RGS10 (probe ILMN_2699531): 9.937 | AVG expression ITGAE (probe ILMN_2699898): 7.502 | AVG expression CCND2 (probe ILMN_2700168): 10.82 | AVG expression DENND5B (probe ILMN_2700354): 7.911 | AVG expression IBRDC3 (probe ILMN_2700689): 9.29 | AVG expression LGALS7 (probe ILMN_2703182): 6.931 | AVG expression STAC2 (probe ILMN_2703563): 6.876 | AVG expression FCRLA (probe ILMN_2703829): 11.55 | AVG expression LIMD2 (probe ILMN_2705878): 8.037 | AVG expression SYNGR2 (probe ILMN_2706231): 11.42 | AVG expression SYNGR2 (probe ILMN_2706232): 11.09 | AVG expression LOC100046608 (probe ILMN_2706514): 8.612 | AVG expression GPR83 (probe ILMN_2707941): 9.205 | AVG expression 5100A8 (probe ILMN_2710905): 12.62 | AVG expression IRGM1 (probe ILMN_2711172): 7.157 | AVG expression LOC100047619 (probe ILMN_2711948): 10.95 | AVG expression TIMP2 (probe ILMN_2712867): 6.749 | AVG expression CHI3L3 (probe ILMN_2712986): 7.589 | AVG expression SDC3 (probe ILMN_2715042): 9.146 | AVG expression SLC12A6 (probe ILMN_2716511): 9.952 | AVG expression MAPK11 (probe ILMN_2716622): 8.853 | AVG expression RGL1 (probe ILMN_2717176): 7.561 | AVG expression TCF7 (probe ILMN_2717975): 8.216 | AVG expression CISH (probe ILMN_2718330): 11.35 | AVG expression SLAMF1 (probe ILMN_2721571): 9.069 | AVG expression CD3G (probe ILMN_2722784): 10.75 | AVG expression CCR8 (probe ILMN_2724465): 6.962 | AVG expression MAPK12 (probe ILMN_2724570): 6.86 | AVG expression IL2 (probe ILMN_2725259): 7.49 | AVG expression NSDHL (probe ILMN_2725402): 8.035 | AVG expression CD9 (probe ILMN_2725414): 8.904 | AVG expression SYTL3 (probe ILMN_2725448): 7.03 | AVG expression SERPINA3G (probe ILMN_2725927): 13.9 | AVG expression EN2 (probe ILMN_2726471): 6.583 | AVG expression B4GALNT1 (probe ILMN_2728270): 10.26 | AVG expression 5830431A10R1K (probe ILMN_2729252): 7.881 | AVG expression HIST1H3D (probe ILMN_2729958): 9.844
